From the supplement of paper PMC10307832

Columns and labels:
Assay in all cases: relative viability (nuclei count vs DMSO), 5 days (fraction); higher = more cells survive
[1] = compound: C1=CC=C(C(=C1)C2=CC=C(C=C2)C3=CSC4=C3C(=C(C(=O)N4)C#N)O)O + CC(C)C[C@H](NC(=O)[C@H](Cc1ccccc1)NC(=O)c1cnccn1)B(O)O [Bortezomib] (partner 0.002 µM)
Procedure, shortened: (§1)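 Lung cancer cell lines, seeded in 1536-well plates, were treated the following day by pin tool with a single drug or with five library-drug doses (not always all listed) in √10 steps on top of a fixed anchor-drug dose. Cells were fixed and nuclei stained in one step after 5 days, and nuclei were counted. Relative viability is the nuclei count for treated wells divided by that for vehicle wells, reported as medians of duplicate plates.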

[2] = compound: CC1=CN2C(=O)C=C(N=C2C(=C1)C(C)NC3=CC=CC=C3)N4CCOCC4 [TGX 221] + CC1(C)CCC(c2ccc(Cl)cc2)=C(CN2CCN(c3ccc(C(=O)NS(=O)(=O)c4ccc(N[C@H](CCN5CCOCC5)CSc5ccccc5)c(S(=O)(=O)C(F)(F)F)c4)cc3)CC2)C1 [Navitoclax] (partner 0.5 µM)
Procedure, shortened: as §1

[3] = compound: CC1=CN2C(=O)C=C(N=C2C(=C1)C(C)NC3=CC=CC=C3)N4CCOCC4 [TGX 221] + C[C@]1(O)C[C@@H](c2nc(-c3ccc4ccc(-c5ccccc5)nc4c3)c3c(N)nccn32)C1 [Linsitinib] (partner 1 µM)
Procedure, shortened: as §1

[4] = compound: O=C(CCCCCCNC(=O)c1cnc(N(c2ccccc2)c2ccccc2)nc1)NO [Ricolinostat] + CC(=O)Nc1cccc(-n2c(=O)n(C3CC3)c(=O)c3c(Nc4ccc(I)cc4F)n(C)c(=O)c(C)c32)c1 [Trametinib] (partner 0.02 µM)
Procedure, shortened: as §1

**Q.** With NCI-H1792 as the cell line, how does the relative viability ([1]; first compound 0.253 µM) read?
**A.** 0.866

**Q.** And the relative viability ([1]; first compound 0.8 µM)?
**A.** 1.1

**Q.** And the relative viability ([1]; first compound 2.53 µM)?
**A.** 1.03

**Q.** What about the relative viability ([1]; first compound 8 µM) of the same cell line?
**A.** 0.425

**Q.** And the relative viability ([2]; first compound 0.08 µM)?
**A.** 0.549

**Q.** And the relative viability ([2]; first compound 0.253 µM)?
**A.** 0.713

**Q.** What about the relative viability ([2]; first compound 0.8 µM) of the same cell line?
**A.** 0.591

**Q.** And the relative viability ([2]; first compound 2.53 µM)?
**A.** 0.62

**Q.** And the relative viability ([2]; first compound 8 µM)?
**A.** 0.625

**Q.** What about the relative viability ([3]; first compound 0.08 µM) of the same cell line?
**A.** 0.501

**Q.** And the relative viability ([3]; first compound 0.253 µM)?
**A.** 0.553

**Q.** And the relative viability ([3]; first compound 0.8 µM)?
**A.** 0.361

**Q.** What about the relative viability ([3]; first compound 2.53 µM) of the same cell line?
**A.** 0.435

**Q.** And the relative viability ([3]; first compound 8 µM)?
**A.** 0.326

**Q.** What about the relative viability ([4]; first compound 0.253 µM) of the same cell line?
**A.** 0.486

**Q.** And the relative viability ([4]; first compound 0.8 µM)?
**A.** 0.418

**Q.** And the relative viability ([4]; first compound 2.53 µM)?
**A.** 0.468
